Data set [1] in a line: Light/dark chamber test. The format is in vivo. The settings on record: treated vs untreated mice. As to the method:
WT and SCID mice were tested in another anxiety test using the light-dark box (Bourin and Hascoet, Eur J Pharmacol 463:55 (2003)). The light-dark box test is based on the innate aversion of rodents to brightly illuminated areas and on the spontaneous exploratory behavior of rodents in response to a mildly stressful situation, that is, a novel environment and light (Crawley and Goodwin Pharmacol Biochem Behav 13:167, 1980). In the light-dark test, increased activity in the light compartment indicates decreased anxiety.
(§1) Elevated plus maze tests, light/dark chamber tests, forced swim tests (FST) and hot plate tests were performed as described earlier.

Data set [2] deals with AMPK. Put plainly: AMPK activation in quiescent MCF7 cells. The format is cell-based. The settings on record: 1 and 2.5 μM, FIG. 20. As for the experimental part: MCF7 cells were obtained from the ATCC. MCF7 cells in G0 were treated with varying doses of H2O2 (FIG. 1). The cells were examined while in the G0 phase of their life cycle to mimic the post-mitotic state of cells in vivo. Low passage MCF-7 cells in G0 were exposed to varying concentrations of H2O2 for 60 minutes with or without Euk-134 or ionizing radiation (5 Gy). For Western blot analysis of DNA-PKcs activation and the activation of other signaling pathways in this study, the following antibodies were used: ACC1 (Cell Signaling); p-ACC1 (Upstate); AMP-activated protein kinase (AMPK; Cell Signaling); p-AMPK(T172) (Cell Signaling); DNA-PK (Lab Vision); p53 (Novocastra); p-DNA-PK(S2056) (Abeam); p-p53(S15) (Cell Signaling); γ-H2AX (Upstate); 53BP1 (Novus Biologicals).
(§2) ENLITEN ATP assay kit (Promega) and ApoGlow assay kit (Cambrex), respectively. […] To determine whether the AMPK-inhibitory function of DNA-PKcs is cell autonomous, quiescent MCF7 cells were treated with 1 and 2.5 μM NU7026.

Data set [3] concerns LKB1. Put plainly: LKB1 IP kinase assay of muscle of treated mice. The format is in vivo. To be noted: mice treated with a low-dose, data not shown.
The nature of data set [4]: Blood-brain barrier penetration inferred from behavioural effects. It counts as in vivo, mice. The settings on record: inferred from decreased anxiety/depression at a low-dose. The text has this:
For any central nervous system drugs, a major rate-limiting step for uptake into the brain is BBB permeability. […] The BBB is an essential physiological barrier for the maintenance and regulation of brain function. It is comprised of brain microvascular endothelial cells that are connected by tight junctions. This transvascular route to the brain is impenetrable to the majority of drugs. Enhanced BBB permeability is obtained, for example, by increasing the lipid solubility of the water-soluble molecules.

Data set [5] has as its target ATM (Homo sapiens, UniProt Q13315). To be noted: related kinase, selectivity; cited from earlier work.
In data set [6] the test system is leukemic cells. To be noted: Willmore et al. Blood 103:4659, 2004; cited from earlier work.
Data set [7] has as its system MCF7 cells. Put plainly: ATP level in MCF7 cells. It counts as cell-based. To be noted: 1 and 2.5 μM, FIG. 20. As to the method: The level of ATP and the ADP/ATP ratio in cells were determined using an
as §2

Data set [8] has as its system PGC-1α. Put plainly: PGC-1α expression in AMPK α1/α2-null MEFs. It counts as cell-based, mouse. The settings on record: FIG. 53. The text has this:
AMPK is a heterotrimer kinase composed of a catalytic α subunit, and the β and γ regulatory subunits. There are two isoforms (α1 and α2) of the catalytic α subunit.

The subject of data set [9] is AMPK. As to the kind of experiment: AMPK activation in C2C12 cells. The format is cell-based. As to the method: Expression of PGC-1α (FIGS. 12-14 and 49) can be induced by multiple proteins, including the energy sensor AMPK and the longevity protein Sirt1. Nutrient deprivation stimulates AMPK activity due to increasing AMP/ATP ratios. AMPK is activated by LKB1 kinase. Alternately, AMPK is also activated by a Ca^2+/calmodulin-dependent protein kinase (CaMK) without AMP. In order to test which upstream kinase plays a major role for AMPK activation after DNA-PKcs inhibition, C2C12 cells were treated with NU7026 in the presence or absence of a known CaMK chemical inhibitor ST0609. […] This raised the possibility that DNA-PKcs suppresses LKB1 and subsequently AMPK.

For data set [10], the system named is mouse embryonic fibroblasts and Chinese hamster ovary cells. To be noted: Veuger et al 2003; Griffin et al. 2005; cited from earlier work.
Data set [11] in a line: Forced swim test (FST). To be noted: data not shown. The format is in vivo, mice. As to the method: as §1
Data set [12] relates to C2C12 cells. As to the kind of experiment: Mitochondrial DNA copy number in C2C12 cells. The format is cell-based. To be noted: C2C12 cells, 2.5 μM, FIG. 49C. As for the experimental part:
Quantitative Real-Time PCR was used to assess the relative amounts of nuclear DNA and mtDNA, to permit assessment of the ratio of mtDNA to nucleic DNA, which reflects the tissue concentration of mitochondria per cell. Muscle tissues were homogenized and digested with Proteinase K overnight in a lysis buffer for DNA extraction by conventional phenol-chloroform method. Quantitative PCR was performed using the following primers: […]
Increased mitochondrial function boosts energy production and physical endurance. […] Further tests were therefore conducted to ascertain whether DNA-PKcs inhibitor elevates mitochondrial biogenesis and expression of PGC-1α and Sirt, which are important for mitochondrial biogenesis. […] It is important to note that only 2.5 μM of NU7026 was required to induce a similar level of Sirt1 to that induced by 25-50 μM Resveratrol, a well-known, potent Sirt1 activator. In FIG. 49C, mitochondrial DNA copy number increased (>1.8 fold) in C2C12 cells after 2.5 μM NU7026 treatment.

A short description of data set [13]: Elevated plus maze test. The format is in vivo, mice. As to the method:
To evaluate whether SCID mice may also have altered anxiety, fear and depression-like traits, an elevated plus maze test was performed, which is a commonly used test to quantify the level of anxiety- and depression-like traits in rodents (Pellow et al. J. Neurosci. Methods 14: 149-67 (1985)). The elevated plus maze has narrow runways that are located 16 inches above the surface that are either closed or open. The animal is placed in the center of an elevated 4-arm maze in which 2 arms are open and 2 are enclosed. Mice generally avoid the open arms because of their fear of open space and height. The elevated plus-maze is used to determine the rodent's response to a potentially dangerous environment and anxiety-related behavior is measured by the degree to which the rodent avoids the unenclosed arms of the maze. Increase in the number of times the animal enters the open arm and the amount of time spent in the open arms reflect decreased anxiety and depression.
as §1

Consider 1 molecule from patent US20100130597A1, “DNA-PKCS MODULATES ENERGY REGULATION AND BRAIN FUNCTION” (The United State of America, as represented by the …, priority 2007, published 2010).

Chain of ATM (Q13315 whole entry, species assumed): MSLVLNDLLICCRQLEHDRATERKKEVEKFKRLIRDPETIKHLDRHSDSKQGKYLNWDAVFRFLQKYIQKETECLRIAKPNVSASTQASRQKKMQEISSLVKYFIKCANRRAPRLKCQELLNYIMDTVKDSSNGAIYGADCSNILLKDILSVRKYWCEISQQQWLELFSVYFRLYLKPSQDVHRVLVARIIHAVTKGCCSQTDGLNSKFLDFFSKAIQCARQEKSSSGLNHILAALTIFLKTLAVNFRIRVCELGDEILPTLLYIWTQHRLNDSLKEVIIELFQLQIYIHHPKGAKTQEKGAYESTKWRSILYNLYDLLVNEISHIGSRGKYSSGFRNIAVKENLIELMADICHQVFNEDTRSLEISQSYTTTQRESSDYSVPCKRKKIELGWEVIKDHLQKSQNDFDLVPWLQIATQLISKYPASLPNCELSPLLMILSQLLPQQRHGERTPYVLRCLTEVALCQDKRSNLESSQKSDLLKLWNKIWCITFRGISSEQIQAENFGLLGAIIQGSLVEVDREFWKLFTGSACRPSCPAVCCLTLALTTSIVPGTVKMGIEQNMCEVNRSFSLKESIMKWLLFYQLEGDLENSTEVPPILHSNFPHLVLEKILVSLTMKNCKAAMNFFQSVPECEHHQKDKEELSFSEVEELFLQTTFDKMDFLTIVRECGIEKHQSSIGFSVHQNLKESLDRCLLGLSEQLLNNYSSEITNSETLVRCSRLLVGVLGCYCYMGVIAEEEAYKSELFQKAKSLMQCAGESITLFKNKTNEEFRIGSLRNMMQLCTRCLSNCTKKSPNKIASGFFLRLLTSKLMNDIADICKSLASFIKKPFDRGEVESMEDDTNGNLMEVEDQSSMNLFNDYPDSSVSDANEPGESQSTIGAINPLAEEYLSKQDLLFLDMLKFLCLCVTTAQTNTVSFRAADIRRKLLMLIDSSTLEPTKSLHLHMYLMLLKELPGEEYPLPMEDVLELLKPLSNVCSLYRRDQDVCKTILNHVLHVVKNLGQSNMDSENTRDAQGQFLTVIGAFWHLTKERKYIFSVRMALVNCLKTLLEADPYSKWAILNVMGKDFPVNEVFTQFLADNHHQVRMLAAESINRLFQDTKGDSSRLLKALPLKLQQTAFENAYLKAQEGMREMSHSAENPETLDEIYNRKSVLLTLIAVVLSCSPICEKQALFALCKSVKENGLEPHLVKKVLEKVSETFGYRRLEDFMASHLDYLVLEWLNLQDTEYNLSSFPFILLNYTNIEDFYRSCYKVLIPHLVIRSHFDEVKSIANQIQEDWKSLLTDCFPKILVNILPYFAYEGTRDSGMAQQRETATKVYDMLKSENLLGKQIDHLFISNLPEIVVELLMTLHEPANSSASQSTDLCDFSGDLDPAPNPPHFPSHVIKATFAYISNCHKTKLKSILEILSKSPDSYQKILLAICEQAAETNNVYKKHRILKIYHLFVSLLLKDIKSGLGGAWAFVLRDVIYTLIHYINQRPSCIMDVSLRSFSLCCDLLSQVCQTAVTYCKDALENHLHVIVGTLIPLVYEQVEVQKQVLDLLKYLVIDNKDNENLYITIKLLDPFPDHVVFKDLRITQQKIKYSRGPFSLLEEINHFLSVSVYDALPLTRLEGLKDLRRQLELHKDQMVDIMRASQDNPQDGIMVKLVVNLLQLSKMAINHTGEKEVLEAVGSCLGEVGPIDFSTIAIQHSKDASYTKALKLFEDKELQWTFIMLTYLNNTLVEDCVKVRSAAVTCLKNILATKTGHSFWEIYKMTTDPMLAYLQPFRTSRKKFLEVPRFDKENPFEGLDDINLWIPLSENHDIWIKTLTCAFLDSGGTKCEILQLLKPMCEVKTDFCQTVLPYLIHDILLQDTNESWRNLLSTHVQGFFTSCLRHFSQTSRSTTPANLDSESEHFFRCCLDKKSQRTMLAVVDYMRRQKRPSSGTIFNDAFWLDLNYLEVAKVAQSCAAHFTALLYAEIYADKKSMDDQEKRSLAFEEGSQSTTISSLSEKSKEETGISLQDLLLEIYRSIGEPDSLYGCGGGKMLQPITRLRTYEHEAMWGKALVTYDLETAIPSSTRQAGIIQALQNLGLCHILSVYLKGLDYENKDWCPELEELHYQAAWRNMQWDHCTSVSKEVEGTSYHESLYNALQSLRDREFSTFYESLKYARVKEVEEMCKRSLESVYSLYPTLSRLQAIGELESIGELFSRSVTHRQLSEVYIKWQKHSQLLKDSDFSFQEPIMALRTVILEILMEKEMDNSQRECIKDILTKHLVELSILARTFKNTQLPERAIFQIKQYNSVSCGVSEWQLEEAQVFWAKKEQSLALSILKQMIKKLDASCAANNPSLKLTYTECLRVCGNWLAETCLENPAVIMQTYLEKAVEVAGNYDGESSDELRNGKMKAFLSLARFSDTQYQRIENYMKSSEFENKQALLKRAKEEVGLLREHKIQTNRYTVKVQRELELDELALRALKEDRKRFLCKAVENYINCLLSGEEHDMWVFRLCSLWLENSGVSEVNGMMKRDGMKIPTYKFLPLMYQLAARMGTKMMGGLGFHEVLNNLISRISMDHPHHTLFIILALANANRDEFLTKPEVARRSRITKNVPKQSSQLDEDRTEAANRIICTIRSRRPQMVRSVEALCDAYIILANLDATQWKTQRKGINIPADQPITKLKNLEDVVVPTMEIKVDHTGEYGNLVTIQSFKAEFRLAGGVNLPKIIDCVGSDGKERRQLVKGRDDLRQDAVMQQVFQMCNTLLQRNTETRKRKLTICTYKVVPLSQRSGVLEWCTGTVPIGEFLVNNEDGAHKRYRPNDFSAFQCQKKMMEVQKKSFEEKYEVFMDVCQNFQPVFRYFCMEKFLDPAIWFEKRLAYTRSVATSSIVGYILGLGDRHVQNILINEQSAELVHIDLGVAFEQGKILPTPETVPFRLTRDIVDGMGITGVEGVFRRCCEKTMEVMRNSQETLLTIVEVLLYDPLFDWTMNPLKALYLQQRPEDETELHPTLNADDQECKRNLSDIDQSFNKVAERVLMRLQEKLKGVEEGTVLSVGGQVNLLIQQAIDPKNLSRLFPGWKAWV

Broadly, the IC50 is the concentration needed to halve the response being measured. Regarding `O=c1cc(N2CCOCC2)oc2c1ccc1ccccc12` [NU7026, 2-(morpholin-4-yl)-benzo[h]chomen-4-one], in data set [1], the “time in the dark compartment” value is listed as “less time in the dark compartment”, the “time in the light compartment” value is listed as “more time in the light compartment” and the “time to enter the light chamber” value is “quicker to enter the light chamber”. The AMPK activation result in data set [2] was “activated AMPK”. For the same molecule, in data set [3], the “LKB1 activity in muscles” value is listed as “strong induction of LKB1 activity”. Moreover, the “blood-brain barrier (BBB) penetration” value in [4] is reported as “can penetrate the blood-brain barrier (BBB) efficiently”. Besides, the IC50 in data set [5] was > 100 µM. Besides, the “sensitization to topoisomerase II inhibitors” value in data set [6] is “sensitize leukemic cells to topoisomerase II inhibitors”. In data set [7], the ATP levels entry was “without significantly affecting ATP levels”. In [8], the PGC-1α expression result was “not able to induce PGC-1α expression”. Also, the AMPK activation result in data set [9] (C2C12 cells, absence of STO609, FIG. 50) is reported as “activated”. Moreover, the AMPK activation result in [9] (C2C12 cells, presence of CaMK inhibitor STO609, FIG. 50) is on record as “still observed”. Moreover, the AMPK activation result in [9] (differentiated C2C12 myoblasts, data not shown) is recorded as “also activated AMPK”. Besides, the “sensitization to radiation in vitro” value in [10] was “sensitize mouse embryonic fibroblasts and Chinese hamster ovary cells to radiation”. In addition, in data set [11], the “immobility in the forced swim test” value is “decreased immobility”. Further, the “mitochondrial DNA copy number increase” value in data set [12] is > 1.8 fold. Also, the levels of anxiety/depression entry in data set [13] (elevated plus maze and light/dark chamber tests, FIGS. 47 and 48) is given as “dramatically lower levels of anxiety/depression”. Besides, in data set [13] (treated vs untreated mice), the “time in closed arm of the elevated plus maze” value is reported as “less time in a closed arm” and the “time in open arm of the elevated plus maze” value is recorded as “more time in the open arm”.
